Target: T1, CB1 receptor (Rattus norvegicus, UniProt P20272)
T1 construct: gene Cnr1
Assay: Pink Flamindo cAMP assay in CB1-transfected HEK293 cells, antagonism of 2-AG; also reverses bath-applied 2-AG in autaptic neurons
Type: cell-based

T1 sequence (P20272 whole entry): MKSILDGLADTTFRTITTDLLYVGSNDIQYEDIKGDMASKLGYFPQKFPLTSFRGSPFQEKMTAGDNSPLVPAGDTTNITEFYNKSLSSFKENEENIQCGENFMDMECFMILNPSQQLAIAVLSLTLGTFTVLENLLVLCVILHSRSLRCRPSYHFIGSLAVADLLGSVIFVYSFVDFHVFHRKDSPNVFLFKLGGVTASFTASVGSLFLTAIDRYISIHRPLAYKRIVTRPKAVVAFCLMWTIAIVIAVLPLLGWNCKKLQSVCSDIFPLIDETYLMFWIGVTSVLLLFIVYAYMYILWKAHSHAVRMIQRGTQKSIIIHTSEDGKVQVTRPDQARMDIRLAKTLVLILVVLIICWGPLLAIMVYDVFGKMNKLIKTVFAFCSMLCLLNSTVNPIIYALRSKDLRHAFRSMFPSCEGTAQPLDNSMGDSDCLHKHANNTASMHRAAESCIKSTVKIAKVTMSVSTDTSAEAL

Work on `CCCc1cc(O)c2c(c1)OC(C)(C)[C@@H]1CCC(C)=C[C@@H]21` [THCV, Δ^9-tetrahydrocannabivarin] yielded an IC50 of 7.3 nM.

Source: publication PMC8434068, “An Evaluation of Understudied Phytocannabinoids and Their Effects in Two Neuronal Models” (Molecules, 2021)
